The values that follow come from patent US4757064A, “Pharmacologically active bicyclic lactams” (Bayer Aktiengesellschaft, priority 1986, dated 1988).

Each structure is given as a SMILES string.

The conditions of assay [1]: animal tests; isolated from Clausena Pentaphylla (Roxb.); cited from earlier work.
A further assay deals with CCl4 intoxicated mice. In words: Hepatoprotective action in CCl4 intoxicated mice (SGPT). The format is in vivo, Male Kunming strain mice. On the procedure: Male Kunming strain mice weighing 18-22 grams were used throughout the experiments. The compounds to be tested were suspended in 5% Tween 80 and given orally by gavage. The vehicle of 5% Tween 80 solution was administered to control mice via the same route. In in vitro experiments, the compounds were dissolved in dimethylformamide and added directly into the incubation mixture.
Mice were divided into several groups. The control group was administered the vehicle. The other groups were given two doses (250 mg/kg) of compound (I, R=H), at an interval of 8 h, respectively. 10 ml/kg of 0.1% CCl4 in vegetable oil was injected ip 24 h after the second administration of the compound. The mice were fasted for 16 h and sacrificed by decapitation. SGPT and liver lipids were determined. A piece of liver was processed into sections for pathological observation.

Assay [2] relates to retrograde amnesia (rat) under hypoxic conditions. Nature of the assay: Retrograde amnesia under hypoxic conditions (passive avoidance, dark compartment, foot shock). The format is in vivo, Male rats. As to conditions: 100 mg/kg p.o.; 3.8% oxygen and 96.2% nitrogen; retest after 24 hours; groups of 15. From the text:
Influence of the compound (I, R=H) on retrograde amnesia (rat) under hypoxic conditions.
The apparatus (39 cm long, 21 cm high, and 21 cm wide) consists of two compartments, one made of translucent plastic (29 cm long) and the other one painted black (10 cm long). It has a bottom of spaced metal grids which are connected to a stimulating device delivering 1.6 mA for 20 s.
Both compartments are connected via a door which can be closed.
Male rats (100-120 g body weight) will be placed individually in the large compartment and allowed to explore both compartments for 3 min.
Thereafter, the animals are placed in the small (dark) compartment, the connecting door is closed and the foot shock is delivered. After that the animals are put in an air-tight cage which is perfused by a gas mixture containing 3.8% oxygen and 96.2% nitrogen.
24 hours later the rats are placed again in the bright compartment. The observation time is 3 min.
One experiment is performed in three groups of 15 animals each:
Group A: control group, not exposed to hypoxia
Group B: control group, receiving hypoxia after first training
Group C: treated animals, receiving hypoxia after first training
Evaluation: the times the animals need to enter the dark compartment are measured in seconds. […]
The time difference between the control group B and the treated group C is calculated in percent (C-B=X%). […]

As to `C=CC(C)(C)c1cc2cc3c(cc2oc1=O)OC1(C)CCC(C(C)(C)O)OC1C3` (stereo not shown) [Clausmarins A], the “spasmolytic activity (in words)” value in assay [1] is given as “showed spasmolytic activity”.
For the molecule `CN1C=Cc2ccccc2C(c2ccccc2)C(O)C1=O` (stereo not shown) [Compound (I, R = H)], the “SGPT, X ± SE” value in the assay on CCl4 intoxicated mice (250 mg/kg × 2, 8 h interval, oral by gavage, 10 ml/kg of 0.1% CCl4 ip 24 h after second dose, 9 per group, control 2270 ± 284, P <0.01) is listed as 617 ± 166 unit %. For the same molecule, the “effect on elevated SGPT (in words)” value with CCl4 intoxicated mice (mice intoxicated with CCl4) was “significantly decreased the elevated SGPT”. Also, in assay [2], the “X, antiamnestic effect (C-B, with A-B=100%)” value stood at 34%.
